Test results from patent US9084770B2, “Modulation of insulin like growth factor I receptor expression in cancer” (Antisense Therapeutics, Ltd., priority 2008, dated 2015).
Strand notation (5' to 3'): a small letter for the sugar, then the base; units joined by * are phosphorothioate-linked, units joined directly phosphodiester-linked; [ ] holds rarer units or linkages, { } end groups; capitals alone tell only the bases. e = 2'-O-(2-methoxyethyl) (MOE); [5mC] = 5-methylcytosine; d = 2'-deoxy (DNA)

system: human IGF-IR mRNA; experiment: Antisense inhibition of human IGF-IR mRNA levels by quantitative RT-PCR (Table 1); assay type: cell-based; design: %INHIB (human IGF-IR mRNA levels): concentration or dose not given beside the values; conditions: as shown in Table 1
Text: Treatment of A549 cell cultures with oligonucleotides targeting IGF-IR is as described in WO 2004/072284.
Quantitation of IGF-IR mRNA levels was accomplished by RT-PCR using the ABI PRISM (trademark) 7600, 7700, or 7900 Sequence Detection System (PE-Applied Biosystems, Foster City, Calif.) according to manufacturer's instructions. This is a closed-tube, non-gel-based, fluorescence detection system which allows high-throughput quantitation of PCR products in real-time. As opposed to standard PCR in which amplification products are quantitated after the PCR is completed, products in real-time quantitative PCR are quantitated as they accumulate. This is accomplished by including in the PCR reaction an oligonucleotide probe that anneals specifically between the forward and reverse PCR primers, and contains two fluorescent dyes. A reporter dye (e.g., FAM or JOE, obtained from either PE-Applied Biosystems, Foster City, Calif., Operon Technologies Inc., Alameda, Calif. or Integrated DNA Technologies Inc., Coralville, Iowa) is attached to the 5′-end of the probe and a quencher dye (e.g., TAMRA, obtained from either PE-Applied Biosystems, Foster City, Calif., Operon Technologies Inc., Alameda, Calif. or Integrated DNA Technologies Inc., Coralville, Iowa) is attached to the 3′-end of the probe. When the probe and dyes are intact, reporter dye emission is quenched by the proximity of the 3′ quencher dye. During amplification, annealing of the probe to the target sequence creates a substrate that can be cleaved by the 5′-exonuclease activity of Taq polymerase. […] With each cycle, additional reporter dye molecules are cleaved from their respective probes, and the fluorescence intensity is monitored at regular intervals by laser optics built into the ABI PRISM (trademark) Sequence Detection System. In each assay, a series of parallel reactions containing serial dilutions of mRNA from untreated control samples generates a standard curve that is used to quantitate the percent inhibition after antisense oligonucleotide treatment of test samples.
PCR reagents were obtained from Invitrogen Corporation, (Carlsbad, Calif.). RT-PCR reactions were carried out by adding 20 μL PCR cocktail (2.5×PCR buffer minus MgCl2, 6.6 mM MgCl2, 375 μM each of dATP, dCTP, […] and dGTP, 375 nM each of forward primer and reverse primer, 125 nM of probe, 4 Units RNAse inhibitor, 1.25 Units PLATINUM (registered trademark) Taq, 5 Units MuLV reverse transcriptase, and 2.5×ROX dye) to 96-well plates containing 30 μL total RNA solution (20-200 ng). The RT reaction was carried out by incubation for 30 minutes at 48° C. Following a 10 minute incubation at 95° C. to activate the PLATINUM (trademark) Taq, 40 cycles of a two-step PCR protocol were carried out: 95° C. for 15 seconds (denaturation) followed by 60° C. for 1.5 minutes (annealing/extension).
Gene target quantities obtained by RT-PCR are normalized using either the expression level of GAPDH, a gene whose expression is constant, or by quantifying total RNA using RiboGreen (trademark) (Molecular Probes, Inc. Eugene, Oreg.). GAPDH expression is quantified by RT-PCR, by being run simultaneously with the target, multiplexing, or separately. Total RNA is quantified using RiboGreen (trademark) RNA quantification reagent (Molecular Probes, Inc. Eugene, Oreg.). Methods of RNA quantification by RiboGreen (trademark) are taught in Jones et al., 1998.
Probes and primers to human IGF-IR were designed to hybridize to the IGF-IR nucleotide sequence, using published sequence information (GenBank accession number NM000875 (SEQ ID NO:76) or M69229 (SEQ ID NO:77) which is the 5′ untranslated of the IGF-IR gene sequence (see FIG. 6).
In accordance with the present invention, a series of antisense compounds were designed to target different regions of the human IGF-IR mRNA or the 5′ untranslated region, using published sequences set forth in NM000875 (SEQ ID NO:77) and M69229 (SEQ ID NO:76). […]

Row | Substance | inhibition of IGF-IR expression (lead compounds)
1 | 175302 (antisense CCTCCATTTTCAAACCCGGA; listed as DNA, chemistry not fully specified) [compound 175302] | demonstrated inhibition
2 | 175307 (antisense AAGTCTCAAACTCAGTCTTC; listed as DNA, chemistry not fully specified) [compound 175307] | demonstrated inhibition
3 | 175308 (antisense GTCGTCGGCCTCCATTTTCA; listed as DNA, chemistry not fully specified) [compound 175308] | demonstrated inhibition
4 | 175314 (antisense e[5mC]*eT*e[5mC]*eG*e[5mC]*dT*dG*dA*dA*dG*dG*dT*d[5mC]*dA*d[5mC]*eA*eG*e[5mC]*e[5mC]*eG) [compound 175314] | demonstrated inhibition
5 | 175316 (antisense GCTCGCTGAAGGTCACAGCC; listed as DNA, chemistry not fully specified) [compound 175316] | demonstrated inhibition
6 | 175317 (antisense CGAAGGAAACAATACTCCGA; listed as DNA, chemistry not fully specified) [compound 175317] | demonstrated inhibition
7 | 175323 (antisense AATGAATGAGCGGCTCCCCC; listed as DNA, chemistry not fully specified) [compound 175323] | demonstrated inhibition

same assay, conditions: quantitative RT-PCR; averages from 3 experiments

Row | Substance | %INHIB (human IGF-IR mRNA levels)
8 | 175292 (antisense AGTCTCAAACTCAGTCTTCG; listed as DNA, chemistry not fully specified) [compound 175292] | 78%
9 | 175293 (antisense GTTAATGCTGGTAAACAAGA; listed as DNA, chemistry not fully specified) [compound 175293] | 40%
10 | 175294 (antisense GAAGTCCGGGTCACAGGCGA; listed as DNA, chemistry not fully specified) [compound 175294] | 77%
11 | 175295 (antisense AACAAGAGCCCCAGCCTCGC; listed as DNA, chemistry not fully specified) [compound 175295] | 76%
12 | 175296 (antisense ATGCTGGTAAACAAGAGCCC; listed as DNA, chemistry not fully specified) [compound 175296] | 57%
13 | 175297 (antisense TGCTGGTAAACAAGAGCCCC; listed as DNA, chemistry not fully specified) [compound 175297] | 61%
14 | 175298 (antisense GGAGTCAAAATGAATGAGCG; listed as DNA, chemistry not fully specified) [compound 175298] | 74%
15 | 175299 (antisense AATCTGCCTAGGCGAGGAAA; listed as DNA, chemistry not fully specified) [compound 175299] | 78%
16 | 175300 (antisense GCTGGTAAACAAGAGCCCCA; listed as DNA, chemistry not fully specified) [compound 175300] | 54%
17 | 175301 (antisense AGCCCAAATCTGCCTAGGCG; listed as DNA, chemistry not fully specified) [compound 175301] | 77%
18 | 175302 (antisense CCTCCATTTTCAAACCCGGA; listed as DNA, chemistry not fully specified) [compound 175302] | 93%
19 | 175303 (antisense GAAGGTCACAGCCGAGGCGA; listed as DNA, chemistry not fully specified) [compound 175303] | 82%
20 | 175304 (antisense TCGCTGAAGGTCACAGCCGA; listed as DNA, chemistry not fully specified) [compound 175304] | 76%
21 | 175305 (antisense ATCCAGGACACACACAAAGC; listed as DNA, chemistry not fully specified) [compound 175305] | 81%
22 | 175306 (antisense AAGTCCGGGTCACAGGCGAG; listed as DNA, chemistry not fully specified) [compound 175306] | 54%
23 | 175307 (antisense AAGTCTCAAACTCAGTCTTC; listed as DNA, chemistry not fully specified) [compound 175307] | 86%
24 | 175308 (antisense GTCGTCGGCCTCCATTTTCA; listed as DNA, chemistry not fully specified) [compound 175308] | 94%
25 | 175309 (antisense GCAGAAACGCGGAGTCAAAA; listed as DNA, chemistry not fully specified) [compound 175309] | 72%

Row | Substance | %INHIB (human IGF-IR mRNA levels)
26 | 175310 (antisense GCGGCGAGCTCCTTCCCAAA; listed as DNA, chemistry not fully specified) [compound 175310] | 76%
27 | 175311 (antisense TAATGCTGGTAAACAAGAGC; listed as DNA, chemistry not fully specified) [compound 175311] | 53%
28 | 175312 (antisense TTTCAAACCCGGAGAGGCAG; listed as DNA, chemistry not fully specified) [compound 175312] | 31%
29 | 175313 (antisense TAGGCGAGGAAAAACAAGCC; listed as DNA, chemistry not fully specified) [compound 175313] | 62%
30 | 175314 (antisense e[5mC]*eT*e[5mC]*eG*e[5mC]*dT*dG*dA*dA*dG*dG*dT*d[5mC]*dA*d[5mC]*eA*eG*e[5mC]*e[5mC]*eG) [compound 175314] | 87%
31 | 175315 (antisense GCAGCGGCCCAGGGCTCGGC; listed as DNA, chemistry not fully specified) [compound 175315] | 75%
32 | 175316 (antisense GCTCGCTGAAGGTCACAGCC; listed as DNA, chemistry not fully specified) [compound 175316] | 82%
33 | 175317 (antisense CGAAGGAAACAATACTCCGA; listed as DNA, chemistry not fully specified) [compound 175317] | 84%
34 | 175318 (antisense GAAACGCGGAGTCAAAATGA; listed as DNA, chemistry not fully specified) [compound 175318] | 68%
35 | 175319 (antisense GAAACAATACTCCGAAGGGC; listed as DNA, chemistry not fully specified) [compound 175319] | 63%
36 | 175320 (antisense CCAAATCCAGGACACACACA; listed as DNA, chemistry not fully specified) [compound 175320] | 64%
37 | 175321 (antisense TCGGCCTCCATTTTCAAACC; listed as DNA, chemistry not fully specified) [compound 175321] | 78%
38 | 175322 (antisense TCCGGGTCACAGGCGAGGCC; listed as DNA, chemistry not fully specified) [compound 175322] | 67%
39 | 175323 (antisense AATGAATGAGCGGCTCCCCC; listed as DNA, chemistry not fully specified) [compound 175323] | 82%
40 | 175324 (antisense TGAAGGTCACAGCCGAGGCG; listed as DNA, chemistry not fully specified) [compound 175324] | 57%
41 | 175325 (antisense AAGGTCACAGCCGAGGCGAG; listed as DNA, chemistry not fully specified) [compound 175325] | 55%
42 | 175326 (antisense CCCAAATCCAGGACACACAC; listed as DNA, chemistry not fully specified) [compound 175326] | 74%
43 | 175327 (antisense ACAAGTCTCAAACTCAGTCT; listed as DNA, chemistry not fully specified) [compound 175327] | 61%
